One experiment has as its target T1, hCA II (Homo sapiens, UniProt P00918).
T1 construct: gene CA2; cytosolic isoform
In words: stopped-flow CA inhibition assay. In kind it is biochemical. An excerpt:
stopped-flow CA inhibition assay on hCA II

The next experiment has as its target T2, hCA I (Homo sapiens, UniProt P00915).
T2 construct: gene CA1; cytosolic isoform
In words: stopped-flow CA inhibition assay. Type of experiment: biochemical. From the text:
stopped-flow CA inhibition assay on hCA I

Structures can show the parent of a compound that is named as a salt.

T2 sequence (P00915 2-261): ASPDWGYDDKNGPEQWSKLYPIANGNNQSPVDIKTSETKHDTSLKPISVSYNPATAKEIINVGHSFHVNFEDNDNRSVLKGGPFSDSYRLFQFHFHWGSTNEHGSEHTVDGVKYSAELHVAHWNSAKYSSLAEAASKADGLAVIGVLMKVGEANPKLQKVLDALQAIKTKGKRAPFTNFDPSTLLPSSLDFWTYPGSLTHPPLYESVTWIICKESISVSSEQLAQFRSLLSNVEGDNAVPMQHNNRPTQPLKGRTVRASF

With `N=C(N)NC(=N)Nc1ccc(S(N)(=O)=O)cc1` [compound 2, 4-(3-Carbamimidoylguanidino)benzenesulfonamide hydrochloride salt], the Ki (usually the dissociation constant of the complex between target and ligand, obtained from inhibition or displacement) on hCA II is 135 nM; on hCA I, 361 nM.

For the molecule `N=C(N)NC(=N)Nc1cccc(S(N)(=O)=O)c1` [compound 4, 3-(3-Carbamimidoylguanidino)benzenesulfonamide hydrochloride salt], the Ki on hCA II turned out to be 265 nM; at hCA I, 707 nM.

Source of the values: paper PMC10179589, “Membrane Permeability Is Required for the Vasodilatory Effect of Carbonic Anhydrase Inhibitors in Porcine Retinal Arteries” (International Journal of Molecular Sciences, 2023).
